In PMC11091243, “PD-L1 targeted peptide demonstrates potent antitumor and immunomodulatory activity in cancer immunotherapy” (Frontiers in Immunology, 2024):
Residues, ends and D or L forms follow the SMILES beside them. No end group written: not given here. *: point of attachment. FITC = O=C1OC2(c3ccc(O)cc3Oc3cc(O)ccc32)c2ccc(NC(=S)*)cc21

Experiments:
PD-1/PD-L1 binding = target: T1, PD-1/PD-L1 binding (Homo sapiens, UniProt Q9NZQ7); experiment: ELISA competition of peptides with PD-1 for binding to PD-L1; settings: n = 3, effect increases with peptide concentration
T1 construct: PD-1: 10377-H08H
T1 sequence (Q9NZQ7 19-239 limits assumed): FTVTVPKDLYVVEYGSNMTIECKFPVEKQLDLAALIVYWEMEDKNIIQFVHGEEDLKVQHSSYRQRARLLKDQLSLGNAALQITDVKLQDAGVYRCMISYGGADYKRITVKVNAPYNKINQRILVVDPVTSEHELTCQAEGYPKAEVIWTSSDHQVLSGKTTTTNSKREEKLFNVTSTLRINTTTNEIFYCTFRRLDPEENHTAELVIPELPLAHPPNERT
Experimental: After seven phages were grown and purified, the solution was diluted 10 times to produce eight gradients. To ascertain the phage’s affinity for PD-L1, an ELISA test was run. Briefly, 96-well plates were filled with 150 µL of PD-L1 ([…]) in assay diluent (BioLegend, San Diego, CA), and incubated at 4°C overnight. 5% BSA in water was used to block the wells for two hours at 4°C. Following washing, 100 µL of phage diluent was added to each well, and they were shaken for two hours at room temperature. The wells were then treated with HRP-conjugated anti-M13 antibody at dose of 1:5000. With 100 µL of HRP substrate, the reaction was observed, and the OD410 was determined. By deducting the OD value of each phage binding to BSA-coated wells from the OD value of that phage binding to PD-L1, the specific binding of each phage to PD-L1 was computed. Three duplicate runs of this assay were made. GraphPad Prism 6 software was used to compute each phage binding affinity by nonlinear regression and convert it to a Scatchard plot. ELISA was used to evaluate the candidate peptides capacity to inhibit PD1/PD-L1 binding. The subsequent stages were the same as those previously outlined. Following incubation, OD410 was determined by goat anti-rabbit monoclonal antibody that had been HRP-labeled and rabbit anti-human PD-L1 protein monoclonal antibody.
To assess the effect of PPL-C peptide interference, PD-L1 binding to PD-1 was investigated using ELISA and cell-based analysis. For the ELISA, 100 μL of mouse PD-L1 in PBS was coated in each well of a 96-well plate and incubated the plate at 4°C overnight. On the second day, 1% BSA in PBST was used to block the plate. Each well was then filled with 200 nmol/L biotinylated PD-1 and FITC-labeled PPL-C peptides (at final concentrations of 40, 20, 10, 5, or 2.5 μmol/L) before 1.5 hours incubating at room temperature. After two PBST washes, the relative FITC fluorescence intensity was measured using a Cytation 3 instrument. […] After two PBST washes, the Cytation 3 device was used to detect PE fluorescence intensity. […] Samples were analyzed by flow cytometry.

CT26 tumor = assay type: in vivo, mouse; settings: reduced dose, s.c. around the tumor every day or every other day, n = 6, P<0.001
Experimental: The investigators conducting the animal studies were not blinded. […] The mice were then randomized into different treatment groups.
(§1) The mice’s tumor volumes were measured by calipers after they were randomly allocated to various treatment groups. Every day tumor volumes were measured along axes (a and b) that are orthogonal to one another, and they were estimated by the equation tumor volume = π/6 × a × b^2. After the tumor was established (approximately 7 days), each group was subcutaneously injected with PPL-C (6 or 11 mg/kg), control peptide (11 mg/kg), endotoxin-free PD-L1 antibody (200 μg), or control antibody, following specific treatment procedures outlined in the flow chart. The Kaplan-Meier technique was used to determine survival differences for each group, and the log-rank test using the survival R package version 2.38-3 was applied to get the overall p-value.

[1] = system: splenic lymphocyte subsets of CT26-bearing Balb/c mice; experiment: Flow cytometry of spleen lymphocytes of CT26-bearing mice after treatment; assay type: in vivo; settings: CT26-bearing Balb/c mice, 14 days after treatment; Figure 5D
Experimental: as §1
To differentiate lymphocytes, spleen monocytes were separated via isodensity centrifugation. For flow cytometry evaluation, cell-surface and intracellular staining was achieved through reagents from BD Biosciences or Biolegend, following previously described protocols. Re-suspending the 1× 10^6 cells in 100 μL of PBS before incubating them with the appropriate antibodies. Data were collected using a BD Biosciences FACSCalibur flow cytometer, Germany, and analyzed using FlowJo 7.6 software, USA. Based on scatter signals and 7-Amino-actinomycin D fluorescence, dead cells, and cell debris were removed from the study.

Molecule	Competition with PD-1 to bind PD-L1 (blocking of PD-L1/PD-1) (PD-1/PD-L1 binding)	Survival time of CT26 tumor-bearing mice (CT26 tumor)	Percentage of NK cells in spleen (CD49b/Nkp46, upper right quadrant) [1]
CC[C@H](C)[C@H](NC(=O)[C@H](Cc1c[nH]c2ccccc12)NC(=O)[C@H](CO)NC(=O)[C@@H](NC(=O)[C@H](Cc1c[nH]cn1)NC(=O)[C@@H](N)CO)[C@@H](C)O)C(=O)N[C@@H](CC(C)C)C(=O)N[C@@H](Cc1ccc(O)cc1)C(=O)NCC(=O)N[C@@H](CCC(=O)O)C(=O)N[C@H](C(=O)NCC(=O)N[C@@H](Cc1c[nH]c2ccccc12)C(=O)NCC(=O)NCC(=O)NCC(=O)N[C@@H](CO)C(=O)N[C@@H](CCCCNC(=S)Nc1ccc2c(c1)C(=O)OC21c2ccc(O)cc2Oc2cc(O)ccc21)C(N)=O)[C@@H](C)O [PL-8] (H-SHTSWILYGETGWGGGSK(FITC)-NH2; N-terminus assumed)	blocked moderately	–	–
SHESWLPAYVLGSGGGSK-NH2 [PL-20]	blocked moderately	–	–
SMQYADHPVNTGGGGSK-NH2 [Control peptide, scrambled control peptide, reference compound]	–	53 days	10.80%
